Measured values from patent US20250019373A1, “ARYL OR HETEROARYL DERIVATIVE, AND PHARMACEUTICAL COMPOSITION COMPRISING SAME AS ACTIVE INGREDIENT FOR PREVENTION OR TREATMENT OF KINASE-RELATED DISEASES” (VORONOI INC., priority 2021, published 2025).

tested on: HT-29 cells; test: Cell necrosis inhibitory activity under necroptosis-inducing conditions (TNF-α, Z-VAD-FMK, LCL161) in HT-29 cells, Cell Titer-Glo; assay type: cell-based; conditions: Homo sapiens, 100 ng/mL TNF-α + 25 μM Z-VAD-FMK + Smac mimetic LCL161, 24 hours, cell viability
Experimental: To evaluate the cell necrosis inhibitory activity of the compound according to the present invention, an experiment was conducted as follows.
To evaluate the efficacy of inhibiting cell necrosis under TNF-α-mediated cell death-inducing conditions, a HT-29 cell line (Korean Cell Line Bank Accession No. #30038) was cultured in RPMI-1640 (HyClone #SH3027.01) medium containing 10% fetal bovine serum (FBS) and 1% penicillin/streptomycin to analyze cell viability. More specifically, for testing, the cell line was seeded in a 96-well flat bottom plate (Corning #3903) at a concentration of 10,000 cells/well and incubated at 37° C. under a 5% CO2 condition for 24 hours. Each well was treated with 100 ng/mL TNF-α, 25 μM pan-caspase inhibitor (Z-VAD-FMK, Selleckchem #S8102), and 10 µM Smac mimetic LCL161 (Selleckchem #S7009) and allowed to react for 10 minutes. The compounds of Examples were treated at 11 concentrations (the highest concentration being 0.1 μM or 1 μM) with a 3-fold concentration gradient, and as a control, dimethyl sulfoxide (DMSO) was treated at a concentration of 0.05% (v/v), which is the same as those when the compounds were treated. The treated cells were incubated for 24 hours. To confirm the degree of cell viability, 100 μL of Cell Titer-Glo (Promega #G7573) was added to the medium of the cultured cells and cultured for additional 10 minutes, and then luminescence was measured using a microplate reader. Based on the […] of control cells that were not treated with the compound, the degree of cell necrosis inhibitory activity was calculated according to the treatment concentration of each compound. Here, the concentration at which the cell necrosis inhibitory activity was 50% was determined as an EC50 (nM) value and calculated using Prism (ver. 8.4.3 #GraphPad) software.

| SMILES | EC50 [nM] |
| --- | --- |
| C#Cc1cnc2ccc(-c3ccc(C)c(NC(=O)N4OCC[C@H]4c4ccccc4)c3)cn12 [Example 116, (S)-N-(5-(3-ethynylimidazo[1,2-a]pyridin-6-yl)-2-methylphenyl)-3-phenylisoxazolidine-2-carboxamide] | 1 |
| Cc1ncc(-c2ccn3nc(NC(=O)C4CC4)nc3c2)cc1NC(=O)N1OCC[C@H]1c1ccccc1 [Example 48, (S)-N-(5-(2-(cyclopropanecarboxamido)-[1,2,4]triazolo[1,5-a]pyridin-7-yl)-2-methylpyridin-3-yl)-3-phenylisoxazolidine-2-carboxamide] | 0.4 |
| COc1ncc(-c2ccc3nc(N)nn3c2)cc1NC(=O)N1OCC[C@H]1c1cccc(F)c1 [Example 58, (S)-N-(5-(2-amino-[1,2,4]triazolo[1,5-a]pyridin-6-yl)-2-methoxypyridin-3-yl)-3-(3-fluorophenyl)isoxazolidine-2-carboxamide] | 3.9 |
| CNC(=O)c1n[nH]c2cc(-c3cncc(NC(=O)N4OCC[C@H]4c4ccccc4)c3)ccc12 [Example 19, (S)-N-(5-(3-(methylcarbamoyl)-1H-indazol-6-yl)pyridin-3-yl)-3-phenylisoxazolidine-2-carboxamide] | 1 |
| COCC(=O)Nc1cn2nc(-c3cnc(OC)c(NC(=O)N4OCC[C@H]4c4ccccc4)c3)ccc2n1 [Example 6, (S)-N-(2-methoxy-5-(2-(2-methoxyacetamido)imidazo[1,2-b]pyridazin-6-yl)pyridin-3-yl)-3-phenylisoxazolidine-2-carboxamide] | 0.9 |
| COc1ccc(-c2ccc3nc(N)nn3c2)cc1NC(=O)N1OCC[C@H]1c1ccccc1 [Example 31, (S)-N-(5-(2-amino-[1,2,4]triazolo[1,5-a]pyridin-6-yl)-2-methoxyphenyl)-3-phenylisoxazolidine-2-carboxamide] | 4.6 |
| CN(C)C1CCC(NC(=O)c2n[nH]c3cc(-c4cccc(NC(=O)N5OCC[C@H]5c5ccccc5)c4)ccc23)CC1 (stereo partly drawn) [Example 20, (S)-N-(3-(3-((4-(dimethylamino)cyclohexyl)carbamoyl)-1H-indazol-6-yl)phenyl)-3-phenylisoxazolidine-2-carboxamide] | 0.3 |
| Cc1ccc(-c2ccc3ncc(C#N)n3n2)cc1NC(=O)N1OCC[C@H]1c1ccccc1 [Example 118, (S)-N-(5-(3-cyanoimidazo[1,2-b]pyridazin-6-yl)-2-methylphenyl)-3-phenylisoxazolidine-2-carboxamide] | 4.3 |
| Cc1ccc([C@@H]2CCON2C(=O)Nc2cc(-c3ccc4nc(N)nn4c3)cnc2C)cn1 [Example 51, (S)-N-(5-(2-amino-[1,2,4]triazolo[1,5-a]pyridin-6-yl)-2-methylpyridin-3-yl)-3-(6-methylpyridin-3-yl)isoxazolidine-2-carboxamide] | 23.3 |
| CC(=O)Nc1nc2cc(-c3cnc(C)c(NC(=O)N4OCC[C@H]4c4ccccc4)c3)ccn2n1 [Example 49, (S)-N-(5-(2-acetamido-[1,2,4]triazolo[1,5-a]pyridin-7-yl)-2-methylpyridin-3-yl)-3-phenylisoxazolidine-2-carboxamide] | 1.3 |
| O=C(Nc1nc2ccc(-c3cccc(NC(=O)N4OCC[C@H]4c4ccccc4)c3)cc2s1)C1CC1 [Example 25, (S)-N-(3-(2-(cyclopropanecarboxamido)benzo[d]thiazol-6-yl)phenyl)-3-phenylisoxazolidine-2-carboxamide] | 0.2 |
| Cc1ccc(-c2ccc3nc(N)nn3c2)cc1NC(=O)N1OCC[C@H]1c1ccc(Cl)cc1 [Example 67, (S)-N-(5-(2-amino-[1,2,4]triazolo[1,5-a]pyridin-6-yl)-2-methylphenyl)-3-(4-chlorophenyl)isoxazolidine-2-carboxamide] | 0.4 |
| Cc1ccc(-c2ccn3nc(N)cc3c2)cc1NC(=O)N1CCO[C@@H](c2ccccc2)C1 [Example 137, (S)-N-(5-(2-aminopyrazolo[1,5-a]pyridin-5-yl)-2-methylphenyl)-2-phenylmorpholine-4-carboxamide] | 49.2 |
| Cc1ccc(-c2ccc3ncsc3n2)cc1NC(=O)N1OCC[C@H]1c1ccccc1 [Example 131, (S)-N-(2-methyl-5-(thiazolo[5,4-b]pyridin-5-yl)phenyl)-3-phenylisoxazolidine-2-carboxamide] | 4 |
| COc1ccc(-c2ccn3nc(N)nc3c2)c(F)c1NC(=O)N1OCC[C@H]1c1ccccc1 [Example 103, (S)-N-(3-(2-amino-[1,2,4]triazolo[1,5-a]pyridin-7-yl)-2-fluoro-6-methoxyphenyl)-3-phenylisoxazolidine-2-carboxamide] | 15.6 |
| Cc1ncc(-c2ccc3nc(NC(=O)C4CC4)sc3c2)cc1NC(=O)N1OCC[C@H]1c1ccccc1 [Example 29, (S)-N-(5-(2-(cyclopropanecarboxamido)benzo[d]thiazol-6-yl)-2-methylpyridin-3-yl)-3-phenylisoxazolidine-2-carboxamide] | 0.1 |
| Cc1ncc(-c2ccc3nc(N)nn3c2)cc1NC(=O)N1OCC[C@H]1c1cccc(C#N)c1 [Example 46, (S)-N-(5-(2-amino-[1,2,4]triazolo[1,5-a]pyridin-6-yl)-2-methylpyridin-3-yl)-3-(3-cyanophenyl)isoxazolidine-2-carboxamide] | 19.4 |
| Cc1ccc(-c2ccn3nc(N)nc3c2)cc1NC(=O)N1OCC[C@H]1c1ccc(C#N)cc1 [Example 92, (S)-N-(5-(2-amino-[1,2,4]triazolo[1,5-a]pyridin-7-yl)-2-methylphenyl)-3-(4-cyanophenyl)isoxazolidine-2-carboxamide] | 0.6 |
| Cc1ccc(-c2ccc3c(N)ncnn23)cc1NC(=O)N1OCC[C@H]1c1ccccc1 [Example 100, (S)-N-(5-(4-aminopyrrolo[2,1-f][1,2,4]triazin-7-yl)-2-methylphenyl)-3-phenylisoxazolidine-2-carboxamide] | 4.6 |
| CC(=O)Nc1cn2nc(-c3cnc(C)c(NC(=O)N4OCC[C@H]4c4ccccc4)c3)ccc2n1 [Example 11, (S)-N-(5-(2-acetamidoimidazo[1,2-b]pyridazin-6-yl)-2-methylpyridin-3-yl)-3-phenylisoxazolidine-2-carboxamide] | 0.9 |
| Cc1ccc(-c2ccc3nc(N)nn3c2)cc1NC(=O)N1OCC[C@H]1c1cccc(F)c1 [Example 60, (S)-N-(5-(2-amino-[1,2,4]triazolo[1,5-a]pyridin-6-yl)-2-methylphenyl)-3-(3-fluorophenyl)isoxazolidine-2-carboxamide] | 0.4 |
| Cc1ncc(-c2ccc3nc(N)nn3c2)cc1NC(=O)N1OCC[C@H]1c1ccc(C#N)cc1 [Example 68, (S)-N-(5-(2-amino-[1,2,4]triazolo[1,5-a]pyridin-6-yl)-2-methylpyridin-3-yl)-3-(4-cyanophenyl)isoxazolidine-2-carboxamide] | 3.9 |
| COc1ccc(-c2ccc3nc(NC(C)=O)sc3c2)cc1NC(=O)N1OCC[C@H]1c1ccccc1 [Example 27, (S)-N-(5-(2-acetamidobenzo[d]thiazol-6-yl)-2-methoxyphenyl)-3-phenylisoxazolidine-2-carboxamide] | 1 |
| Cc1ncc(-c2ccc3nc(NC(=O)C4CC4)cn3n2)cc1NC(=O)N1OCC[C@H]1c1ccccc1 [Example 10, (S)-N-(5-(2-(cyclopropanecarboxamido)imidazo[1,2-b]pyridazin-6-yl)-2-methylpyridin-3-yl)-3-phenylisoxazolidine-2-carboxamide] | 0.3 |
| CNC(=O)c1n[nH]c2cc(-c3cccc(NC(=O)N4OCC[C@H]4c4ccccc4)c3)ccc12 [Example 17, (S)-N-(3-(3-(methylcarbamoyl)-1H-indazol-6-yl)phenyl)-3-phenylisoxazolidine-2-carboxamide] | 0.1 |
| Cc1ccc(-c2ccn3nc(N)nc3c2)cc1NC(=O)N1OCC[C@H]1c1ccc(Cl)cc1 [Example 65, (S)-N-(5-(2-amino-[1,2,4]triazolo[1,5-a]pyridin-7-yl)-2-methylphenyl)-3-(4-chlorophenyl)isoxazolidine-2-carboxamide] | 0.2 |
| Cc1ccc(-c2ccc3ncc(C#N)n3c2)cc1NC(=O)N1OCC[C@H]1c1ccccc1 [Example 114, (S)-N-(5-(3-cyanoimidazo[1,2-a]pyridin-6-yl)-2-methylphenyl)-3-phenylisoxazolidine-2-carboxamide] | 1.9 |
| Cc1ncc(-c2ccc3nc(N)nn3c2)cc1NC(=O)N1OCC[C@H]1c1cccc(C(F)(F)F)c1 [Example 41, (S)-N-(5-(2-amino-[1,2,4]triazolo[1,5-a]pyridin-6-yl)-2-methylpyridin-3-yl)-3-(3-(trifluoromethyl)phenyl)isoxazolidine-2-carboxamide] | 1 |
| Cc1ccc(-c2ccn3nc(N)cc3c2)cc1NC(=O)N1Oc2ccccc2[C@H]1c1ccccc1 [Example 139, (R)-N-(5-(2-aminopyrazolo[1,5-a]pyridin-5-yl)-2-methylphenyl)-3-phenylbenzo[d]isoxazole-2(3H)-carboxamide] | 2.2 |
| Cc1ncc(-c2csc3c(N)ncnc23)cc1NC(=O)N1OCC[C@H]1c1ccccc1 [Example 121, (S)-N-(5-(4-aminothieno[3,2-d]pyrimidine-7-y1)-2-methylpyridin-3-yl)-3-phenylisoxazolidine-2-carboxamide] | 11.7 |
